{"source": "ChEMBL document CHEMBL5528040", "about": "“Design and Synthesis of Novel 3-Nitro-1H-1,2,4-triazole-1,2,3-triazole-1,4-disubstituted Analogs as Promising Antitrypanosomatid Agents: Evaluation of In Vitro Activity against Chagas Disease and Leishmaniasis” (J Med Chem, 2024)", "key": {"[1]": {"assay": "Mutagenicity in Salmonella typhimurium TA98 assessed as mutagenic index ratio at 500 ug per plate incubated for 90 mins by AMES test", "format": "toxicity, Salmonella enterica subsp. enterica serovar Typhimurium", "details": "in vivo, 1.5 h, dose 500 µg"}, "[2]": {"assay": "Mutagenicity in Salmonella typhimurium TA102 assessed as mutagenic index ratio at 1500 ug per plate incubated for 90 mins by AMES test", "format": "toxicity, Salmonella enterica subsp. enterica serovar Typhimurium", "details": "in vivo, 1.5 h, dose 1500 µg"}, "[3]": {"assay": "Mutagenicity in Salmonella typhimurium TA102 assessed as number of revertant colonies at 50 ug per plate incubated for 90 mins in presence of S9 fraction by AMES test (reference value: 130.00 +/- 6.93)", "format": "toxicity, subcellular, Salmonella enterica subsp. enterica serovar Typhimurium", "details": "s9, 1.5 h, dose 50 µg"}, "[4]": {"assay": "Mutagenicity in Salmonella typhimurium TA98 assessed as number of revertant colonies at 150 ug per plate incubated for 90 mins in presence of S9 fraction by AMES test (reference value: 21.00 +/- 1.00)", "format": "toxicity, subcellular, Salmonella enterica subsp. enterica serovar Typhimurium", "details": "s9, 1.5 h, dose 150 µg"}, "[5]": {"assay": "Mutagenicity in Salmonella typhimurium TA100 assessed as number of revertant colonies at 5000 ug per plate incubated for 90 mins by AMES test (reference value: 88.00 +/- 2.65)", "format": "toxicity, Salmonella enterica subsp. enterica serovar Typhimurium", "details": "in vivo, 1.5 h, dose 5000 µg"}, "[6]": {"assay": "Mutagenicity in Salmonella typhimurium TA98 assessed as number of revertant colonies at 1500 ug per plate incubated for 90 mins by AMES test (reference value: 22.67 +/- 0.58)", "format": "toxicity, Salmonella enterica subsp. enterica serovar Typhimurium", "details": "in vivo, 1.5 h, dose 1500 µg"}, "[7]": {"assay": "Mutagenicity in Salmonella typhimurium TA100 assessed as mutagenic index ratio at 5000 ug per plate incubated for 90 mins in presence of S9 fraction by AMES test", "format": "toxicity, subcellular, Salmonella enterica subsp. enterica serovar Typhimurium", "details": "s9, 1.5 h, dose 5000 µg"}, "Trypanosoma cruzi": {"system": "Trypanosoma cruzi", "assay": "Antitrypanosomal activity against Trypanosoma cruzi Tulahuen amastigotes transfected with Escherichia coli beta-galactosidase LacZ gene infected in monkey LLC-MK2 cells assessed as inhibition of amastigotes growth incubated for 72 hrs by absorbance based microplate reader analysis", "format": "functional, organism-based", "details": "LLC-MK2, 72 h"}, "[8]": {"assay": "Mutagenicity in Salmonella typhimurium TA98 assessed as number of revertant colonies at 50 ug per plate incubated for 90 mins by AMES test (reference value: 22.67 +/- 0.58)", "format": "toxicity, Salmonella enterica subsp. enterica serovar Typhimurium", "details": "in vivo, 1.5 h, dose 50 µg"}, "[9]": {"assay": "Mutagenicity in Salmonella typhimurium TA100 assessed as number of revertant colonies at 1500 ug per plate incubated for 90 mins by AMES test (reference value: 88.00 +/- 2.65)", "format": "toxicity, Salmonella enterica subsp. enterica serovar Typhimurium", "details": "in vivo, 1.5 h, dose 1500 µg"}, "[10]": {"assay": "Mutagenicity in Salmonella typhimurium TA100 assessed as mutagenic index ratio at 1500 ug per plate incubated for 90 mins by AMES test", "format": "toxicity, Salmonella enterica subsp. enterica serovar Typhimurium", "details": "in vivo, 1.5 h, dose 1500 µg"}, "[11]": {"assay": "Mutagenicity in Salmonella typhimurium TA102 assessed as mutagenic index ratio at 5000 ug per plate incubated for 90 mins in presence of S9 fraction by AMES test", "format": "toxicity, subcellular, Salmonella enterica subsp. enterica serovar Typhimurium", "details": "s9, 1.5 h, dose 5000 µg"}, "[12]": {"assay": "Mutagenicity in Salmonella typhimurium TA98 assessed as mutagenic index ratio at 50 ug per plate incubated for 90 mins in presence of S9 fraction by AMES test", "format": "toxicity, subcellular, Salmonella enterica subsp. enterica serovar Typhimurium", "details": "s9, 1.5 h, dose 50 µg"}, "[13]": {"assay": "Mutagenicity in Salmonella typhimurium TA98 assessed as number of revertant colonies at 1500 ug per plate incubated for 90 mins in presence of S9 fraction by AMES test (reference value: 21.00 +/- 1.00)", "format": "toxicity, subcellular, Salmonella enterica subsp. enterica serovar Typhimurium", "details": "s9, 1.5 h, dose 1500 µg"}, "[14]": {"assay": "Mutagenicity in Salmonella typhimurium TA98 assessed as mutagenic index ratio at 1500 ug per plate incubated for 90 mins in presence of S9 fraction by AMES test", "format": "toxicity, subcellular, Salmonella enterica subsp. enterica serovar Typhimurium", "details": "s9, 1.5 h, dose 1500 µg"}, "[15]": {"assay": "Mutagenicity in Salmonella typhimurium TA100 assessed as mutagenic index ratio at 150 ug per plate incubated for 90 mins in presence of S9 fraction by AMES test", "format": "toxicity, subcellular, Salmonella enterica subsp. enterica serovar Typhimurium", "details": "s9, 1.5 h, dose 150 µg"}, "[16]": {"assay": "Cytotoxicity against monkey LLC-MK2 cells incubated for 72 hrs by MTT assay", "format": "toxicity, cell-based, Macaca mulatta", "details": "rhesus monkey"}, "[17]": {"assay": "Mutagenicity in Salmonella typhimurium TA98 assessed as mutagenic index ratio at 5000 ug per plate incubated for 90 mins by AMES test", "format": "toxicity, Salmonella enterica subsp. enterica serovar Typhimurium", "details": "in vivo, 1.5 h, dose 5000 µg"}, "[18]": {"assay": "Mutagenicity in Salmonella typhimurium TA100 assessed as mutagenic index ratio at 5000 ug per plate incubated for 90 mins by AMES test", "format": "toxicity, Salmonella enterica subsp. enterica serovar Typhimurium", "details": "in vivo, 1.5 h, dose 5000 µg"}, "[19]": {"assay": "Mutagenicity in Salmonella typhimurium TA100 assessed as mutagenic index ratio at 500 ug per plate incubated for 90 mins in presence of S9 fraction by AMES test", "format": "toxicity, subcellular, Salmonella enterica subsp. enterica serovar Typhimurium", "details": "s9, 1.5 h, dose 500 µg"}, "[20]": {"assay": "Mutagenicity in Salmonella typhimurium TA102 assessed as mutagenic index ratio at 5000 ug per plate incubated for 90 mins by AMES test", "format": "toxicity, Salmonella enterica subsp. enterica serovar Typhimurium", "details": "in vivo, 1.5 h, dose 5000 µg"}, "[21]": {"assay": "Mutagenicity in Salmonella typhimurium TA98 assessed as number of revertant colonies at 500 ug per plate incubated for 90 mins in presence of S9 fraction by AMES test (reference value: 21.00 +/- 1.00)", "format": "toxicity, subcellular, Salmonella enterica subsp. enterica serovar Typhimurium", "details": "s9, 1.5 h, dose 500 µg"}, "[22]": {"assay": "Mutagenicity in Salmonella typhimurium TA98 assessed as number of revertant colonies at 50 ug per plate incubated for 90 mins in presence of S9 fraction by AMES test (reference value: 21.00 +/- 1.00)", "format": "toxicity, subcellular, Salmonella enterica subsp. enterica serovar Typhimurium", "details": "s9, 1.5 h, dose 50 µg"}, "[23]": {"assay": "Mutagenicity in Salmonella typhimurium TA98 assessed as number of revertant colonies at 5000 ug per plate incubated for 90 mins by AMES test (reference value: 22.67 +/- 0.58)", "format": "toxicity, Salmonella enterica subsp. enterica serovar Typhimurium", "details": "in vivo, 1.5 h, dose 5000 µg"}, "[24]": {"assay": "Mutagenicity in Salmonella typhimurium TA100 assessed as number of revertant colonies at 500 ug per plate incubated for 90 mins by AMES test (reference value: 88.00 +/- 2.65)", "format": "toxicity, Salmonella enterica subsp. enterica serovar Typhimurium", "details": "in vivo, 1.5 h, dose 500 µg"}, "[25]": {"assay": "Mutagenicity in Salmonella typhimurium TA100 assessed as mutagenic index ratio at 1500 ug per plate incubated for 90 mins in presence of S9 fraction by AMES test", "format": "toxicity, subcellular, Salmonella enterica subsp. enterica serovar Typhimurium", "details": "s9, 1.5 h, dose 1500 µg"}, "[26]": {"assay": "Mutagenicity in Salmonella typhimurium TA100 assessed as number of revertant colonies at 5000 ug per plate incubated for 90 mins in presence of S9 fraction by AMES test (reference value: 122.67 +/- 5.03)", "format": "toxicity, subcellular, Salmonella enterica subsp. enterica serovar Typhimurium", "details": "s9, 1.5 h, dose 5000 µg"}, "[27]": {"assay": "Mutagenicity in Salmonella typhimurium TA100 assessed as number of revertant colonies at 150 ug per plate incubated for 90 mins by AMES test (reference value: 88.00 +/- 2.65)", "format": "toxicity, Salmonella enterica subsp. enterica serovar Typhimurium", "details": "in vivo, 1.5 h, dose 150 µg"}, "[28]": {"assay": "Mutagenicity in Salmonella typhimurium TA100 assessed as number of revertant colonies at 500 ug per plate incubated for 90 mins in presence of S9 fraction by AMES test (reference value: 122.67 +/- 5.03)", "format": "toxicity, subcellular, Salmonella enterica subsp. enterica serovar Typhimurium", "details": "s9, 1.5 h, dose 500 µg"}, "[29]": {"assay": "Mutagenicity in Salmonella typhimurium TA102 assessed as number of revertant colonies at 1500 ug per plate incubated for 90 mins in presence of S9 fraction by AMES test (reference value: 130.00 +/- 6.93)", "format": "toxicity, subcellular, Salmonella enterica subsp. enterica serovar Typhimurium", "details": "s9, 1.5 h, dose 1500 µg"}, "[30]": {"assay": "Mutagenicity in Salmonella typhimurium TA102 assessed as number of revertant colonies at 5000 ug per plate incubated for 90 mins in presence of S9 fraction by AMES test (reference value: 130.00 +/- 6.93)", "format": "toxicity, subcellular, Salmonella enterica subsp. enterica serovar Typhimurium", "details": "s9, 1.5 h, dose 5000 µg"}, "[31]": {"assay": "Substrate activity at Trypanosoma cruzi type I nitro reductase assessed as reduction in NADH incubated for 120 sec by spectrophotometric analysis"}, "[32]": {"assay": "Mutagenicity in Salmonella typhimurium TA98 assessed as number of revertant colonies at 500 ug per plate incubated for 90 mins by AMES test (reference value: 22.67 +/- 0.58)", "format": "toxicity, Salmonella enterica subsp. enterica serovar Typhimurium", "details": "in vivo, 1.5 h, dose 500 µg"}}, "data": [{"molecule": "O=[N+]([O-])c1ncn(Cc2cn(-c3ccc(OC(F)(F)F)cc3)nn2)n1", "values": [{"measurement": "Ratio", "setting": "[1]", "result": 0.9}, {"measurement": "Ratio", "setting": "[2]", "result": 1.2}, {"measurement": "Activity", "setting": "[3]", "result": 162.67}, {"measurement": "Activity", "setting": "[4]", "result": 23.33}, {"measurement": "Activity", "setting": "[5]", "result": 80.67}, {"measurement": "Activity", "setting": "[6]", "result": 20.33}, {"measurement": "Ratio", "setting": "[7]", "result": 0.3}, {"measurement": "IC50", "setting": "Trypanosoma cruzi", "result": 90, "unit": "nM"}, {"measurement": "Activity", "setting": "[8]", "result": 18.33}, {"measurement": "Activity", "setting": "[9]", "result": 81}, {"measurement": "Ratio", "setting": "[10]", "result": 0.9}, {"measurement": "Ratio", "setting": "[11]", "result": 1}, {"measurement": "Ratio", "setting": "[12]", "result": 1}, {"measurement": "Activity", "setting": "[13]", "result": 22}, {"measurement": "Ratio", "setting": "[14]", "result": 1}, {"measurement": "Ratio", "setting": "[15]", "result": 0.9}, {"measurement": "CC50 at 72 h", "setting": "[16]", "result": "> 50000", "unit": "nM"}, {"measurement": "Ratio", "setting": "[17]", "result": 1.1}, {"measurement": "Ratio", "setting": "[18]", "result": 0.9}, {"measurement": "Ratio", "setting": "[19]", "result": 1}, {"measurement": "Ratio", "setting": "[20]", "result": 1.2}, {"measurement": "Activity", "setting": "[21]", "result": 23.33}, {"measurement": "Activity", "setting": "[22]", "result": 22.67}, {"measurement": "Activity", "setting": "[23]", "result": 25}, {"measurement": "Activity", "setting": "[24]", "result": 83}, {"measurement": "Ratio", "setting": "[25]", "result": 0.8}, {"measurement": "Activity", "setting": "[26]", "result": 47}, {"measurement": "Activity", "setting": "[27]", "result": 96}, {"measurement": "Activity", "setting": "[28]", "result": 129}, {"measurement": "Activity", "setting": "[29]", "result": 178.67}, {"measurement": "Activity", "setting": "[30]", "result": 131}, {"measurement": "pIC50", "setting": "[31]", "result": 7.04}, {"measurement": "Activity", "setting": "[32]", "result": 21.33}]}]}
